Experimental data published in US9926306B2, “Inhibition of MCL-1 and/or BFL-1/A1” (Dana-Farber Cancer Institute, Inc., priority 2012, dated 2018).

What was measured:
MCL-1ΔNΔC = MCL-1ΔNΔC (Homo sapiens (Human), UniProt Q07820); test: Competitive fluorescence polarization binding assay, MCL-1; settings: Table A
Protocol: Here, we deployed MCL-1 SAHBA as a high fidelity screening tool to determine if its potency and specificity-of-action could be harnessed for small molecule discovery. […] A compilation of 71,296 small molecules was screened for the capacity to displace FITC-MCL-1 SAHBA from recombinant MCL-1ΔNΔC (aa 172-327) (FIG. 4).
Fluorescence polarization assays (FPA) were performed as previously described^38,39. […] Fluorescence polarization was measured at equilibrium and IC50 values calculated by nonlinear regression analysis of competitive binding curves using Prism software (Graphpad).

BFL-1/A1ΔC = BFL-1/A1ΔC (Homo sapiens (Human), UniProt Q16548); test: Competitive fluorescence polarization binding assay, BFL-1/A1 (FITC-BID BH3); settings: Table A
BFL-1/A1ΔC, sequence (Q16548 1-153): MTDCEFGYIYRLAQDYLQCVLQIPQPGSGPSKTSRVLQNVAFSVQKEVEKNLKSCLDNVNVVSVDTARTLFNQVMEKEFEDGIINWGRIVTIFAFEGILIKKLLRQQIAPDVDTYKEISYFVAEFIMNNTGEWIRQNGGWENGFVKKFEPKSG
Excerpt: FIG. 19A and FIG. 19B are graphs that show potent targeting of the anti-apoptotic protein BFL-1/A1 by MIM1. […] Thus, the complex between FITC-BID BH3 and BFL-1/A1ΔC was employed in a competitive FP assay to monitor the capacity of MIM1 to target BFL-1/A1ΔC.

MCL-1ΔNΔC, sequence (Q07820 172-327, stated change not applied): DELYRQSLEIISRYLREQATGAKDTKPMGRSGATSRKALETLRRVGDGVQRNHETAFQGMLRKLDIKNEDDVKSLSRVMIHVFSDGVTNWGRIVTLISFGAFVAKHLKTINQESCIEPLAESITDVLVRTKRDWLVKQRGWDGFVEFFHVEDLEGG

Structure (SMILES) | IC50 (MCL-1ΔNΔC) [nM] | IC50 (BFL-1/A1ΔC) [nM]
Oc1ccc(/C=N/NC(=S)NC2CCCCC2)c(O)c1O [178-72] | 16000 | 5100
CCc1cs/c(=N\C2CCCCC2)n1/N=C/c1ccc(O)c(O)c1O [178-82] | 2100 | 1200
Oc1ccc(/C=N/n2c(C3CC3)cs/c2=N\C2CCCCC2)c(O)c1O [178-83] | 910 | 785
COC(=O)Cc1cs/c(=N\C2CCCCC2)n1/N=C/c1ccc(O)c(O)c1O [178-97] | 9500 | 1000
Cc1s/c(=N\C2CCCCC2)n(/N=C/c2ccc(O)c(O)c2O)c1C [183-8] | 1500 | 712
Cc1cs/c(=N\C2CCCC2)n1/N=C/c1ccc(O)c(O)c1O [183-19] | 3100 | 631
Cc1cs/c(=N\c2ccccc2)n1/N=C/c1ccc(O)c(O)c1O [183-20] | – | 264
Oc1ccc(/C=N/n2c(C3CC3)cs/c2=N\c2ccccc2)c(O)c1O [183-21] | 4300 | 719
Oc1ccc(/C=N/n2c(C3CC3)cs/c2=N\C2CCCC2)c(O)c1O [183-22] | 2400 | 601
CCOc1ccccc1/N=c1\scc(C)n1/N=C/c1ccc(O)c(O)c1O [183-24] | 16000 | 2500
Cc1cs/c(=N\C2CCCCC2)n1/N=C/c1ccc(O)c(O)c1 [183-38] | 12000 | 282
CC(C)(C)c1cs/c(=N\C2CCCCC2)n1/N=C/c1ccc(O)c(O)c1O [183-44] | 540 | 914
Oc1ccc(/C=N/N2/C(=N/C3CCCCC3)SCC2(O)C(F)(F)F)c(O)c1O (stereo not shown) [183-51] | 2900 | 1200
CC(C)(C)c1cs/c(=N\C2CCCCC2)n1/N=C/c1ccc(O)c(O)c1 [183-65] | 17700 | 2100
CC(C)(C)Cc1cs/c(=N\C2CCCCC2)n1/N=C/c1ccc(O)c(O)c1O [183-70] | 1970 | 1500
Oc1ccc(/C=N/n2c(-c3cccs3)cs/c2=N\C2CCCCC2)c(O)c1O [183-76] | 11000 | 388
Oc1ccc(/C=N/n2c3c(s/c2=N\C2CCCCC2)CCCC3)c(O)c1O [183-81] | 4500 | 1300
Cc1cs/c(=N\C2CC3CCC2C3)n1/N=C/c1cc(O)c(O)cc1O (stereo not shown) [183-82] | 1000 | 169
Cc1cs/c(=N\C2CCCCC2)n1/N=C/c1cc(O)c(O)c(O)c1 [183-84] | 13000 | 316
COc1cc(/C=N/n2c(C)cs/c2=N\C2CCCCC2)cc(OC)c1OC [183-85] | 7600 | –
CC(C)(C)c1cs/c(=N\C2CCCCC2)n1/N=C/c1cc(O)c(O)cc1O [183-87] | 151 | 42
CC(C)(C)c1cs/c(=N\C2CCCCC2)n1/N=C/c1cc(O)c(O)c(O)c1 [183-88] | 1160 | 759

Structure (SMILES) | IC50 (MCL-1ΔNΔC) [nM] | IC50 (BFL-1/A1ΔC) [nM]
Cc1s/c(=N\C2CCCCC2)n(/N=C/c2cc(O)c(O)cc2O)c1C [183-89] | 780 | 581
CCOC(=O)c1s/c(=N\C2CCCCC2)n(/N=C/c2ccc(O)c(O)c2O)c1C [183-91] | 11800 | 381
Cc1cs/c(=N\CC2CCCCC2)n1/N=C/c1ccc(O)c(O)c1O [187-5] | 2700 | 1100
Oc1cc(O)c(/C=N/n2c(C3CC3)cs/c2=N\C2CCCCC2)cc1O [187-7] | 123 | 26
Cc1cs/c(=N\C2CCCCC2)n1/N=C/c1cc(O)c(O)cc1F [187-8] | – | 8400
CC(C)(C)c1cs/c(=N\C2CCCCC2)n1/N=C/c1cc(O)c(O)cc1F [187-10] | – | 9100
CC(C)C(C)/N=C1\SCC(Br)(C2CC2)N1/N=C/c1cc(O)c(O)cc1O (stereo not shown) [187-19] | 891 | –
Cc1cs/c(=N\C(C)C(C)C)n1/N=C/c1ccc(O)c(O)c1O (stereo not shown) [187-20] | 1780 | 2100
Cc1cs/c(=N\C2CCCc3ccccc32)n1/N=C/c1cc(O)c(O)cc1O (stereo not shown) [187-22] | 1410 | 144
Cc1cs/c(=N\C2CCCc3ccccc32)n1/N=C/c1ccc(O)c(O)c1O (stereo not shown) [187-23] | 4360 | 1100
CC(C)C(C)/N=c1\scc(C(C)(C)C)n1/N=C/c1ccc(O)c(O)c1O (stereo not shown) [187-27] | 4300 | 1500
CCc1s/c(=N\C2CCCCC2)n(/N=C/c2ccc(O)c(O)c2O)c1C(C)(C)C [187-37] | – | 2800
CC(C)C(C)/N=c1\scc(C2CC2)n1/N=C/c1cc(O)c(O)cc1O (stereo not shown) [187-39] | 7300 | 1100
Cc1s/c(=N\C2CCCCC2)n(/N=C/c2cc(O)c(O)cc2O)c1C1CC1 [187-44] | 587 | 117
Cc1s/c(=N\C2CCN(C(=O)OC(C)(C)C)CC2)n(/N=C/c2ccc(O)c(O)c2O)c1C1CC1 [187-50] | – | 735
Cc1cs/c(=N\C2CC3CCC2C3)n1/N=C/c1cc(O)c(O)cc1O (stereo not shown) [187-79] | 937 | 272
Cc1cs/c(=N\C2CCCCC2)n1/N=C/c1c(O)cc(O)cc1O [187-81] | – | 31000
Cc1cs/c(=N\c2ccccc2)n1/N=C/c1ccc(O)c(O)c1 [187-82] | 13300 | 8100
Oc1ccc(/C=N/n2c(C3CC3)cs/c2=N\c2ccccc2)cc1O [187-95] | – | 3000
COc1cc(/C=N/n2c(C(C)(C)C)cs/c2=N\C2CCCCC2)c(O)cc1O [190-4] | – | 15000
Oc1ccc(/C=N/n2c(-c3cccs3)cs/c2=N\c2ccccc2)c(O)c1O [190-18] | – | 1700
Oc1ccc(/C=N/n2c(C3CC3)cs/c2=N\c2ccccc2)c(O)c1O [190-20] | – | 365
